Assay results published in patent US7335814B2, “Transgenic cells expressing glucosyltransferase nucleic acids” (The University of York, priority 2000, dated 2008).

Key:
Assay type in all cases: biochemical
recombinant GTase A233 = target: T1, recombinant GTase A233 (Arabidopsis thaliana, UniProt Q8W491); experiment: Specific activity of recombinant GTase producing O-glucosides against lignin precursors (HPLC); settings: 30° C.; ND = not detected
T1 construct: made in house; host or cells: E. coli

recombinant GTase A320 = target: T2, recombinant GTase A320 (Arabidopsis thaliana, UniProt Q9LVF0); experiment: Specific activity of recombinant GTase producing glucose ester against lignin precursors (HPLC); settings: 5 mM UDPG, 0.2 μg GTase, 200 μl, 20° C., 30 min
T2 construct: made in house; host or cells: E. coli
T2 sequence (Q9LVF0 1-496): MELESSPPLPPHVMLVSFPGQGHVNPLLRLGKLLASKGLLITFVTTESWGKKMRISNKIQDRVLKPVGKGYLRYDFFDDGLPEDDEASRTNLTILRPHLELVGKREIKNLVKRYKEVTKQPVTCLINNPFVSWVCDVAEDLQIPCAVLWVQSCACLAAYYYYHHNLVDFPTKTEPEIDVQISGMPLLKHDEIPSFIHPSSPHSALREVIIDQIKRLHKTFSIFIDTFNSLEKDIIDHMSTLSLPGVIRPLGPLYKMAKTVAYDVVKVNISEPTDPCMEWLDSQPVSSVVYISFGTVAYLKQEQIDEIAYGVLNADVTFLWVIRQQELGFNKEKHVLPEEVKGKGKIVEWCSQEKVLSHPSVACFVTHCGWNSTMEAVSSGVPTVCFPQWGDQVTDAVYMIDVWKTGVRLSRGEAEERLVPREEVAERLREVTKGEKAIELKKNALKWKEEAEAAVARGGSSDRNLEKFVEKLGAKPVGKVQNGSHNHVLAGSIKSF

recombinant GTase A43 = target: T3, recombinant GTase A43 (Arabidopsis thaliana, UniProt O23402); experiment: as above; settings: 0.5 ml of potential substrates, 5 mM UDPG, 0.2 μg GTase, 200 μl, 20° C., 30 min
T3 construct: made in house; host or cells: E. coli

recombinant GTase A961 = target: T4, recombinant GTase A961 (Arabidopsis thaliana, UniProt O82381); experiment: Specific activity of recombinant GTase producing O-glucosides against lignin precursors (HPLC); settings: 30° C.; ND = not detected
T4 construct: made in house; host or cells: E. coli
T4 sequence (O82381 1-481): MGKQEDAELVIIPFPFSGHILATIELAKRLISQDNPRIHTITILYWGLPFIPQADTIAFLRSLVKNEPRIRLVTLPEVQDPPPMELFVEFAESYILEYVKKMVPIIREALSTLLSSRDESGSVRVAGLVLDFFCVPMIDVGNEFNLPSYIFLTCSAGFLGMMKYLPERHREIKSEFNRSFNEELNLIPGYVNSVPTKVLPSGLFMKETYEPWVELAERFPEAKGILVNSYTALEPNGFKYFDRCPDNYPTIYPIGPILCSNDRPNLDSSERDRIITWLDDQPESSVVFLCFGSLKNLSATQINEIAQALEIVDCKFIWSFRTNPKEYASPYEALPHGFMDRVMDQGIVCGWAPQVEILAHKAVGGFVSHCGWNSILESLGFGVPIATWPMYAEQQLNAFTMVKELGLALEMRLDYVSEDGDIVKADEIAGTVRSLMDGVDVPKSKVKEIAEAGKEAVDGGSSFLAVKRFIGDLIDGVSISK

recombinant GTase A119 = target: T5, recombinant GTase A119 (Arabidopsis thaliana, UniProt Q9LVR1); experiment: as above; settings: 30° C.; ND = not detected
T5 construct: made in house; host or cells: E. coli
T5 sequence (Q9LVR1 1-481): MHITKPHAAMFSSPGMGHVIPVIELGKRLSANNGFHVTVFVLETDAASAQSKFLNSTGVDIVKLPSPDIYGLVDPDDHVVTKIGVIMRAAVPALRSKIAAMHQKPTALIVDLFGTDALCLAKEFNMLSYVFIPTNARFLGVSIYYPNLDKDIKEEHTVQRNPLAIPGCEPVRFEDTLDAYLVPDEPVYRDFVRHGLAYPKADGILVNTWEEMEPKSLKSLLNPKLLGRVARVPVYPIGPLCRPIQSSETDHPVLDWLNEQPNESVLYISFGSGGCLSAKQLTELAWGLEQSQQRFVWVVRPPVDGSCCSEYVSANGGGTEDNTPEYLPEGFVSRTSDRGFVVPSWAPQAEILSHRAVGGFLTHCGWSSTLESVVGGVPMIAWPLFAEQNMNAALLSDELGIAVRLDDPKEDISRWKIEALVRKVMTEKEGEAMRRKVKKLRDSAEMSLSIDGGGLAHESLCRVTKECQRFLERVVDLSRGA

recombinant GTase A407 = target: T6, recombinant GTase A407 (Arabidopsis thaliana, UniProt O81498); experiment: as above; settings: 30° C.; ND = not detected
T6 construct: made in house; host or cells: E. coli
T6 sequence (O81498 1-481): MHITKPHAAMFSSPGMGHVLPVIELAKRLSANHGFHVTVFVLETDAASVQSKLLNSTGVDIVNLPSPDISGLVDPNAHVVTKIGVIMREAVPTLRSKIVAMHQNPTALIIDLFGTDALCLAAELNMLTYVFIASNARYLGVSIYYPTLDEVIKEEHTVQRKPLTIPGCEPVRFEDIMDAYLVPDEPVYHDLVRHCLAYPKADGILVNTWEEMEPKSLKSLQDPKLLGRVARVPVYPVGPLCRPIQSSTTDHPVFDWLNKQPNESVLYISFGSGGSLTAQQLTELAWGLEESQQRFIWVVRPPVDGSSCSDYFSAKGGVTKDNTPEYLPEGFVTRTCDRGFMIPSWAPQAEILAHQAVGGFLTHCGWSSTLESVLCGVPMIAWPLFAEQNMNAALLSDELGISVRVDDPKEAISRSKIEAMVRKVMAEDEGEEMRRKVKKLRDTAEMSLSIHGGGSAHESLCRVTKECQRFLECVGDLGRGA

UGT71C1 = target: T7, UGT71C1 (Arabidopsis thaliana, UniProt O82381); experiment: UGT71C1 glucosyltransferase specific activity towards phenolic compounds (reverse-phase HPLC); settings: 1 mM phenolic compound, 5 mM UDP-glucose, 50 mM TRIS-HCl pH 7.0, 30° C., 30 min; mean of three replicates ± standard deviation
T7 construct: GST (N); made in house; host or cells: E. coli
T7 sequence (O82381 1-481): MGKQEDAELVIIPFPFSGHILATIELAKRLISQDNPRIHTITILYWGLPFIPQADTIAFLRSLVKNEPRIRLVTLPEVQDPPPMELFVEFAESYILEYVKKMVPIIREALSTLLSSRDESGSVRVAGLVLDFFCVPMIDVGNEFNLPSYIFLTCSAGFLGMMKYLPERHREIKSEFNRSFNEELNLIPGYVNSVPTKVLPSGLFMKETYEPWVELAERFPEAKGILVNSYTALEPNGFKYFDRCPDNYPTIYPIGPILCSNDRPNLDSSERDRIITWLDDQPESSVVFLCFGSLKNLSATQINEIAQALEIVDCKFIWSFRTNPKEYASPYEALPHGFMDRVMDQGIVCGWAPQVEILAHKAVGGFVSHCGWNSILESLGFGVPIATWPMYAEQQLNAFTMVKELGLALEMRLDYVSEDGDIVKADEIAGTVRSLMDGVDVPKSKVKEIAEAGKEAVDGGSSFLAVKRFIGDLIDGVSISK

recombinant GTase A062 = target: T8, recombinant GTase A062 (Arabidopsis thaliana, UniProt Q9LR44); experiment: Specific activity of recombinant GTase producing glucose ester against lignin precursors (HPLC); settings: 0.5 ml of potential substrates, 5 mM UDPG, 0.2 μg GTase, 200 μl, 20° C., 30 min
T8 construct: made in house; host or cells: E. coli
T8 sequence (Q9LR44 1-469): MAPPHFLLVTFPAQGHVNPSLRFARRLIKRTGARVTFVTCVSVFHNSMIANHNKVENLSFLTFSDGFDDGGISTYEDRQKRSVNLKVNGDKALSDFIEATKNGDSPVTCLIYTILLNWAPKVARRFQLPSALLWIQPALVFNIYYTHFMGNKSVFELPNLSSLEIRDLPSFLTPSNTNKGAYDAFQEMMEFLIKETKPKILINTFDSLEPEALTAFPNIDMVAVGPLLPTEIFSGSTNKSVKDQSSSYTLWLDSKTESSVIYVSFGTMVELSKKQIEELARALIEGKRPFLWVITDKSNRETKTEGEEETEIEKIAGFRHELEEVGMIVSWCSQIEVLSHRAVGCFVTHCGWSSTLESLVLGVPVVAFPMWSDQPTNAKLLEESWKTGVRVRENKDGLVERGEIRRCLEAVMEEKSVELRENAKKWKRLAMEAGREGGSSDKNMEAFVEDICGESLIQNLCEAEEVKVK

recombinant GTase A911 = target: T9, recombinant GTase A911 (Arabidopsis thaliana, UniProt O22182); experiment: as above; parameters: made in house; host or cells: E. coli; settings: 0.5 ml of potential substrates, 5 mM UDPG, 0.2 μg GTase, 200 μl, 20° C., 30 min
T9 sequence (O22182 1-456): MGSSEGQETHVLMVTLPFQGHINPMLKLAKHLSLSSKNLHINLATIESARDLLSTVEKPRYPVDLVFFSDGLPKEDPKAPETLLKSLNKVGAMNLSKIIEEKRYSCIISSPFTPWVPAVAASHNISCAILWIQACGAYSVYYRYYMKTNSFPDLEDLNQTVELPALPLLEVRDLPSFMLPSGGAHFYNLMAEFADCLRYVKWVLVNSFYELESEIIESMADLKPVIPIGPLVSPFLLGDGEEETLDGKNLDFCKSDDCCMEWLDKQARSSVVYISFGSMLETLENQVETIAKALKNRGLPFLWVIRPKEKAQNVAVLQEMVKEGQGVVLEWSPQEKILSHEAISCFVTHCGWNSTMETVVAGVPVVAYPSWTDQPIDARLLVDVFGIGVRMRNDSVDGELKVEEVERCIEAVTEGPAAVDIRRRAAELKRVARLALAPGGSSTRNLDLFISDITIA

With `O=C(O)C=Cc1ccc(O)c(O)c1` [Caffeic acid, 3,4-dihydroxycinnamic acid] the “Specific activity of A233 (substrate converted to 4-O-glucoside)” value (recombinant GTase A233) was 0.48 nkat/mg, the “Specific activity of A320 (substrate converted to glucose ester)” value (recombinant GTase A320) was 0.05 nkat/mg and the “Specific activity of A43 (substrate converted to glucose ester)” value (recombinant GTase A43) was 0.01 nkat/mg. The “Specific activity of A961 (substrate converted to 4-O-glucoside)” value (recombinant GTase A961) was 0.07 nkat/mg, the “Specific activity of A119 (substrate converted to 4-O-glucoside)” value (recombinant GTase A119) was 0.13 nkat/mg and the “Specific activity of A407 (substrate converted to 4-O-glucoside)” value (recombinant GTase A407) was 0.07 nkat/mg. For the same compound, the “Specific activity (UGT71C1)” value (UGT71C1) was 2.9 ± 0.8 nkat/mg, the “Specific activity of A062 (substrate converted to glucose ester)” value (recombinant GTase A062) was 0.26 nkat/mg and the “Specific activity of A911 (substrate converted to glucose ester)” value (recombinant GTase A911) was 0.77 nkat/mg.
